Earlier results in patent publication US9920373B2, “Biomarkers of response to proteasome inhibitors” (MILLENNIUM PHARMACEUTICALS, INC., priority 2011, dated 2018).

Conditions: upon exposure to aqueous solutions or plasma; cited from earlier work

CC(C)C[C@H](NC(=O)CNC(=O)c1cc(Cl)ccc1Cl)B1OC(=O)C(CC(=O)O)(CC(=O)O)O1 [MLN9708, 2,2′-{2-[(1R)-1-({[(2,5dichlorobenzoyl)amino]acetyl}amino)-3-methylbutyl]-5-oxo-1,3,2-dioxaborolane-4,4-diyl}diacetic acid]
hydrolysis to the biologically active form: immediately hydrolyzes to MLN2238
